Results on 20 molecules are retold here after patent US8536172B2, “Inhibitors of JNK” (Roche Palo Alto LLC, priority 2009, dated 2013).

Experiment [1] has as its target Human JNK1α1 (Homo sapiens (Human), UniProt P45983). As to the kind of experiment: JNK assay in vitro: phosphorylation of GST-ATF2 (19-96) with [γ-33P] ATP, JNK1. Format: biochemical. The conditions noted are these: 2 nM enzyme, 1 μM ATF2, 6 μM ATP (Km), 30° C. 30 min. The protocol:
JNK activity was measured by phosphorylation of GST-ATF2 (19-96) with [γ-^33P] ATP. […] Human JNK2α2 assay contains 1 nM enzyme, 1 μM ATF2, 8 μM ATP with 1 uCi [γ-^33P] ATP. Human JNK1α1 assay contains 2 nM enzyme, 1 μM ATF2, 6 μM ATP with 1 μCi [γ-^33P] ATP. […] ATP. The enzyme assay was carried out in the presence or absence of several compound concentrations. JNK and compound were pre-incubated for 10 min., followed by initiation of the enzymatic reaction by adding ATP and the substrate. The reaction mixture was incubated at 30° C. for 30 min. […] The incorporation of ^33P into ATF2 was quantified on a microplate scintillation counter (Packard Topcount). Compound inhibition potency on JNK was measured by IC50 value generated from ten concentration inhibition curves fitted into the 3-parameter model: % inhibition=Maximum/(1+(IC50/[Inhibitor])^slope). Data were analyzed on Microsoft Excel for parameter estimation.

Experiment [2] deals with Human JNK2α2 (Homo sapiens (Human), UniProt P45984). As to the kind of experiment: JNK assay in vitro: phosphorylation of GST-ATF2 (19-96) with [γ-33P] ATP, JNK2. It is filed as biochemical. Conditions: 1 nM enzyme, 1 μM ATF2, 8 μM ATP (Km), 30° C. 30 min. The protocol: JNK activity was measured by phosphorylation of GST-ATF2 (19-96) with [γ-^33P] ATP. […] Human JNK2α2 assay contains 1 nM enzyme, 1 μM ATF2, 8 μM ATP with 1 uCi [γ-^33P] ATP. Human JNK1α1 assay contains 2 nM enzyme, 1 μM ATF2, 6 μM ATP with 1 μCi [γ-^33P] ATP. Human JNK3 (Upstate Biotech #14-501M) assay contains 2 nM enzyme, 1 μM ATF2, 4 μM ATP with 1 μCi [γ-^33P] ATP. The enzyme assay was carried out in the presence or absence of several compound concentrations. JNK and compound were pre-incubated for 10 min., followed by initiation of the enzymatic reaction by adding ATP and the substrate. The reaction mixture was incubated at 30° C. for 30 min. At the end of incubation, the reaction was terminated by transferring 25 μl of the reaction mixture to 150 μl of 10% glutathione Sepharose® slurry (Amersham #27-4574-01) containing 135 mM EDTA. The reaction product was captured on the affinity resin, and washed on a filtration plate (Millipore, MABVNOB50) with phosphate buffered saline for six times to remove free radionucleotide. The incorporation of ^33P into ATF2 was quantified on a microplate scintillation counter (Packard Topcount). Compound inhibition potency on JNK was measured by IC50 value generated from ten concentration inhibition curves fitted into the 3-parameter model: % inhibition=Maximum/(1+(IC50/[Inhibitor])^slope). Data were analyzed on Microsoft Excel for parameter estimation.
Chain of Human JNK2α2 (P45984 whole entry): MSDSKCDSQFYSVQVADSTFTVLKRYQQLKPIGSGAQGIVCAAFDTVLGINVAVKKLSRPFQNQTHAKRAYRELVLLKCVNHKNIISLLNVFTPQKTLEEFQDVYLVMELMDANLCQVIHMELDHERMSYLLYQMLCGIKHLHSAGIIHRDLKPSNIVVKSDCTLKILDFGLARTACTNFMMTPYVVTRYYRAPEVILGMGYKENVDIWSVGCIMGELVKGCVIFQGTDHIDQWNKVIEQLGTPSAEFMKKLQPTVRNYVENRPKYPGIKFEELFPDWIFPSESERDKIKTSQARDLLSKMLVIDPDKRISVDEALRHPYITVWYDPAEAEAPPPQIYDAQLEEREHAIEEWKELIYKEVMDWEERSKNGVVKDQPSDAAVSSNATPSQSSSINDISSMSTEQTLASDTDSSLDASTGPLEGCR

Usually IC50 stands for the concentration at which inhibition is half-maximal. Read a low IC50 as greater potency.

Chain of Human JNK1α1 (P45983 other isoform, or with tags, fused parts or gaps): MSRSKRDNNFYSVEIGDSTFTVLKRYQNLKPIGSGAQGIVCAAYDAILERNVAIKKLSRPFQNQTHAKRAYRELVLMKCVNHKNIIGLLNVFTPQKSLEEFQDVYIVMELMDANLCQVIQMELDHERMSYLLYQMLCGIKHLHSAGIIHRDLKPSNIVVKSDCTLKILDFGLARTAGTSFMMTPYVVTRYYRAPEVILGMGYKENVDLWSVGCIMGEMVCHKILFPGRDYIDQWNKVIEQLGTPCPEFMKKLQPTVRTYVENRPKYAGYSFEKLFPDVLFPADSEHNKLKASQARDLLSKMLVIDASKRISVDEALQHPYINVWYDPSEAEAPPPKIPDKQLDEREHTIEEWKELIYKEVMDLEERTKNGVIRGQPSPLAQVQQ

`CC(C)(O)[C@H]1CC[C@H](Nc2nccc(-n3ccc4c(N5CCC(S(C)(=O)=O)CC5)cccc43)n2)CC1` [Compound I-14, 2-(4-{4-[4-(4-Methanesulfonyl-piperidin-1-yl)-indol-1-yl]-pyrimidin-2-ylamino}-cyclohexyl)-propan-2-ol]: the IC50 was found to be 3 nM in experiment [1] and 19.2 nM in experiment [2]. The matching figures for `N#CCC(=O)N1CCN(c2cccc3c2ccn3-c2ccnc(N[C@H]3CC[C@@H](O)CC3)n2)CC1` [Compound I-57, 3-(4-{1-[2-(4-Hydroxy-cyclohexylamino)-pyrimidin-4-yl]-1H-indol-4-yl}-piperazin-1-yl)-3-oxo-propionitrile]: 15.9 nM and 88.4 nM. On the same counts, the results for `CS(=O)(=O)N[C@H]1CC[C@H](Nc2nccc(-n3ccc4c(N5CCN(C(=O)CC#N)CC5)cccc43)n2)CC1` [Compound I-9, N-[4-(4-{4-[4-(2-Cyano-acetyl)-piperazin-1-yl]-indol-1-yl}-pyrimidin-2-ylamino)-cyclohexyl]-methanesulfonamide] are 5.4 nM and 36.2 nM. The matching figures for `CN(C)S(=O)(=O)N[C@H]1CC[C@H](Nc2nccc(-n3ccc4c(N5CCC(S(C)(=O)=O)CC5)cccc43)n2)CC1` [Compound I-15, [4-{4-[4-(4-Methanesulfonyl-piperidin-1-yl)-indol-1-yl]-pyrimidin-2-ylamino}-cyclohexyl]aminodimethylsulfonamide]: 3.6 nM and 20.8 nM.

`CC(=O)N1CCN(c2cccc3c2ccn3-c2ccnc(NC3CCCCC3)n2)CC1` [Compound I-37, 1-{4-[1-(2-Cyclohexylamino-pyrimidin-4-yl)-1H-indol-4-yl]-piperazin-1-yl}-ethanone]: the IC50 is 48.4 nM in experiment [1] and 4030 nM in experiment [2]. `CC(C)(C)OC(=O)NCC(=O)N1CCN(c2cccc3c2ccn3-c2ccnc(N[C@H]3CC[C@H](NS(C)(=O)=O)CC3)n2)CC1` [Compound I-22, [2-(4-{1-[2-(4-Methanesulfonylamino-cyclohexylamino)-pyrimidin-4-yl]-1H-indol-4-yl}-piperazin-1-yl)-2-oxo-ethyl]-carbamic acid tert-butyl ester]: the figures for the IC50 in experiment [1] and in experiment [2] were 3.6 nM and 26.4 nM, respectively. For the molecule `CC(=O)N1CCN(c2cccc3c2ccn3-c2ccnc(N[C@H]3CC[C@H](CS(C)(=O)=O)CC3)n2)CC1` [Compound I-41, 1-(4-{1-[2-(4-Methanesulfonylmethyl-cyclohexylamino)-pyrimidin-4-yl]-1H-indol-4-yl}-piperazin-1-yl)-ethanone], the IC50 in experiment [1] worked out at 25 nM; in experiment [2] it was 164 nM. On the same counts, the results for `CC(=O)N1CCN(c2cccc3c2c(C(N)=O)cn3-c2ccnc(N[C@H]3CC[C@H](O)CC3)n2)CC1` [Compound I-63, 4-(4-Acetyl-piperazin-1-yl)-1-[2-(4-hydroxy-cyclohexylamino)-pyrimidin-4-yl]-1H-indole-3-carboxylic acid amide] are 12.4 nM and 25.7 nM. On to `CN(C)CCN([C@H]1CC[C@H](Nc2nccc(-n3ccc4c(N5CCN(C(=O)CC#N)CC5)cccc43)n2)CC1)S(C)(=O)=O` [Compound I-26, N-[4-(4-{4-[4-(2-Cyano-acetyl)-piperazin-1-yl]-indol-1-yl}-pyrimidin-2-ylamino)-cyclohexyl]-N-(2-dimethylamino-ethyl)-methanesulfonamide], for which the IC50 stood at 3.7 nM in experiment [1] and 24.6 nM in experiment [2]. On to `CS(=O)(=O)N[C@H]1CC[C@H](Nc2nccc(-n3ccc4c(N5CCC(S(C)(=O)=O)CC5)cccc43)n2)CC1` [Compound I-6, N-(4-{4-[4-(4-Methanesulfonyl-piperidin-1-yl)-indol-1-yl]-pyrimidin-2-ylamino}-cyclohexyl)-methanesulfonamide], for which the IC50 in experiment [1] was found to be 3 nM; in experiment [2] it was 23.5 nM. For the molecule `N#CCC(=O)N1CCN(c2cccc3c2ccn3-c2ccnc(NC3CCCCC3)n2)CC1` [Compound I-38, 3-{4-[1-(2-Cyclohexylamino-pyrimidin-4-yl)-1H-indol-4-yl]-piperazin-1-yl}-3-oxo-propionitrile], the IC50 in experiment [2] worked out at 42.8 nM. Consider `N#CCC(=O)N1CCN(c2cccc3c2ccn3-c2ccnc(N[C@@H]3CC[C@H](O)C3)n2)CC1` [Compound I-59, 3-(4-{1-[2-((1R,3S)-3-Hydroxy-cyclopentylamino)-pyrimidin-4-yl]-1H-indol-4-yl}-piperazin-1-yl)-3-oxo-propionitrile], for which the IC50 in experiment [2] was found to be 570 nM. For the molecule `COCCO[C@H]1CC[C@H](Nc2nccc(-n3ccc4c(N5CCN(C(=O)CC#N)CC5)cccc43)n2)CC1` [Compound I-40, 3-[4-(1-{2-[4-(2-Methoxy-ethoxy)-cyclohexylamino]-pyrimidin-4-yl}-1H-indol-4-yl)-piperazin-1-yl]-3-oxo-propionitrile], in experiment [2], half-maximal inhibition (IC50) required 35 nM.

Take `N#CCC(=O)O[C@H]1CCC[C@H](Nc2nccc(-n3ccc4c(N5CCN(C(=O)CC#N)CC5)cccc43)n2)C1` [Compound I-36, Cyano-acetic acid (1S,3S)-3-(4-{4-[4-(2-cyano-acetyl)-piperazin-1-yl]-indol-1-yl}-pyrimidin-2-ylamino)-cyclohexyl ester]: half-maximal inhibition in experiment [2] (IC50) was put at 168 nM. In the case of `N#CCC(=O)N1CCN(c2cccc3c2ccn3-c2ccnc(N[C@@H]3CC[C@@H](O)C3)n2)CC1` [Compound I-61, 3-(4-{1-[2-((1R,3R)-3-Hydroxy-cyclopentylamino)-pyrimidin-4-yl]-1H-indol-4-yl}-piperazin-1-yl)-3-oxo-propionitrile], the IC50 in experiment [2] was 105 nM. This IC50 lies about 1.6-fold lower than the previous one. The molecule `N#CCC(=O)N1CCN(c2cccc3c2ccn3-c2ccnc(N[C@H]3CC[C@H](O)C3)n2)CC1` [Compound I-60, 3-(4-{1-[2-((1S,3S)-3-Hydroxy-cyclopentylamino)-pyrimidin-4-yl]-1H-indol-4-yl}-piperazin-1-yl)-3-oxo-propionitrile] showed an IC50 in experiment [2] of 150 nM.

Take `N#CCC(=O)N1CCN(c2cccc3c2ccn3-c2ccnc(N[C@H]3CCC[C@H](O)C3)n2)CC1` [Compound I-34, 3-(4-{1-[2-((1S,3S)-3-Hydroxy-cyclohexylamino)-pyrimidin-4-yl]-1H-indol-4-yl}-piperazin-1-yl)-3-oxo-propionitrile]: in experiment [2], inhibition was half-maximal at 89.2 nM (IC50). This IC50 is about 1.7-fold lower than that of the molecule before. The molecule `N#CCC(=O)O[C@@H]1CCC[C@H](Nc2nccc(-n3ccc4c(N5CCN(C(=O)CC#N)CC5)cccc43)n2)C1` [Compound I-33, Cyano-acetic acid (1R,3S)-3-(4-{4-[4-(2-cyano-acetyl)-piperazin-1-yl]-indol-1-yl}-pyrimidin-2-ylamino)-cyclohexyl ester] showed an IC50 in experiment [2] of 198 nM.

With `COCCO[C@H]1CC[C@H](Nc2nccc(-n3ccc4c(N5CCN(C(C)=O)CC5)cccc43)n2)CC1` [Compound I-39, 1-[4-(1-{2-[4-(2-Methoxy-ethoxy)-cyclohexylamino]-pyrimidin-4-yl}-1H-indol-4-yl)-piperazin-1-yl]-ethanone], in experiment [2], half-maximal inhibition (IC50) required 406 nM.

Molecule `CS(=O)(=O)N(CCO)[C@H]1CC[C@H](Nc2nccc(-n3ccc4c(N5CCN(C(=O)CC#N)CC5)cccc43)n2)CC1` [Compound I-44, N-[4-(4-{4-[4-(2-Cyano-acetyl)-piperazin-1-yl]-indol-1-yl}-pyrimidin-2-ylamino)-cyclohexyl]-N-(2-hydroxy-ethyl)-methanesulfonamide] had an IC50 in experiment [2] of 19.2 nM.
